Source: ChEMBL document CHEMBL3580659, “One-pot multicomponent synthesis of indole incorporated thiazolylcoumarins and their antibacterial, anticancer and DNA cleavage studies” (2015)

Experiments:
Type in all cases: functional
[1] = test system: ACHN; assay: Cytotoxicity against human ACHN cells assessed as cell growth level at 1 uM after 48 hrs by sulforhodamine B assay
[2] = test system: SF-268; assay: Cytotoxicity against human SF268 cells assessed as cell growth level at 10 nM after 48 hrs by sulforhodamine B assay
[3] = test system: SK-OV-3; assay: Cytotoxicity against human SKOV3 cells after 48 hrs by sulforhodamine B assay; conditions: SK-OV-3, 48 h
[4] = test system: OVCAR-3; assay: Cytotoxicity against human OVCAR3 cells assessed as cell growth level at 100 nM after 48 hrs by sulforhodamine B assay
[5] = test system: HCT-116; assay: Cytotoxicity against human HCT116 cells after 48 hrs by sulforhodamine B assay; conditions: HCT-116, 48 h
[6] = test system: MDA-MB-435; assay: Cytotoxicity against human MDA-MB-435 cells assessed as cell growth level at 1 uM after 48 hrs by sulforhodamine B assay
[7] = test system: NCI-H522; assay: Cytotoxicity against human NCI-H522 cells assessed as cell growth level at 100 uM after 48 hrs by sulforhodamine B assay
[8] = test system: MDA-MB-231; assay: Cytotoxicity against human MDA-MB-231/ATCC cells assessed as cell growth level at 10 uM after 48 hrs by sulforhodamine B assay
[9] = test system: K562; assay: Cytotoxicity against human K562 cells assessed as cell growth level at 1 uM after 48 hrs by sulforhodamine B assay
[10] = test system: IGROV-1; assay: Cytotoxicity against human IGROV1 cells assessed as cell growth level at 1 uM after 48 hrs by sulforhodamine B assay
[11] = test system: DU-145; assay: Cytotoxicity against human DU145 cells assessed as cell growth level at 10 uM after 48 hrs by sulforhodamine B assay
[12] = test system: A549; assay: Cytotoxicity against human A549/ATCC cells assessed as cell growth level at 100 nM after 48 hrs by sulforhodamine B assay
[13] = test system: UACC-257; assay: Cytotoxicity against human UACC257 cells assessed as cell growth level at 100 uM after 48 hrs by sulforhodamine B assay
[14] = test system: Malme-3M; assay: Cytotoxicity against human MALME-3M cells assessed as cell growth level at 100 nM after 48 hrs by sulforhodamine B assay
[15] = test system: SK-OV-3; assay: Cytotoxicity against human SKOV3 cells assessed as cell growth level at 10 uM after 48 hrs by sulforhodamine B assay
[16] = test system: SR; assay: Cytotoxicity against human SR cells assessed as cell growth level at 10 uM after 48 hrs by sulforhodamine B assay
[17] = test system: HCT-15; assay: Cytotoxicity against human HCT15 cells assessed as cell growth level at 1 uM after 48 hrs by sulforhodamine B assay
[18] = test system: HOP-92; assay: Cytotoxicity against human HOP92 cells assessed as cell growth level at 1 uM after 48 hrs by sulforhodamine B assay
[19] = test system: SK-OV-3; assay: Cytotoxicity against human SKOV3 cells assessed as cell growth level at 1 uM after 48 hrs by sulforhodamine B assay
[20] = test system: NCI-H322M; assay: Cytotoxicity against human NCI-H322M cells assessed as cell growth level at 10 nM after 48 hrs by sulforhodamine B assay
[21] = test system: SF-295; assay: Cytotoxicity against human SF295 cells assessed as cell growth level at 100 uM after 48 hrs by sulforhodamine B assay
[22] = test system: IGROV-1; assay: Cytotoxicity against human IGROV1 cells assessed as cell growth level at 100 nM after 48 hrs by sulforhodamine B assay
[23] = test system: SK-MEL-28; assay: Cytotoxicity against human SK-MEL-28 cells assessed as cell growth level at 10 uM after 48 hrs by sulforhodamine B assay
[24] = test system: SNB-19; assay: Cytotoxicity against human SNB19 cells assessed as cell growth level at 1 uM after 48 hrs by sulforhodamine B assay
[25] = Cytotoxicity against human NCI-ADR-RES cells assessed as cell growth level at 1 uM after 48 hrs by sulforhodamine B assay
[26] = test system: HOP-62; assay: Cytotoxicity against human HOP62 cells assessed as cell growth level at 10 uM after 48 hrs by sulforhodamine B assay
[27] = test system: HOP-92; assay: Cytotoxicity against human HOP92 cells assessed as cell growth level at 100 nM after 48 hrs by sulforhodamine B assay
[28] = test system: UO-31; assay: Cytotoxicity against human UO31 cells assessed as cell growth level at 10 uM after 48 hrs by sulforhodamine B assay
[29] = test system: SK-MEL-2; assay: Cytotoxicity against human SK-MEL-2 cells assessed as cell growth level at 100 nM after 48 hrs by sulforhodamine B assay
[30] = test system: PC-3; assay: Cytotoxicity against human PC3 cells after 48 hrs by sulforhodamine B assay; conditions: PC-3, 48 h
[31] = test system: UO-31; assay: Cytotoxicity against human UO31 cells assessed as cell growth level at 100 uM after 48 hrs by sulforhodamine B assay
[32] = Cytotoxicity against human NCI-ADR-RES cells assessed as cell growth level at 10 uM after 48 hrs by sulforhodamine B assay
[33] = test system: NCI-H23; assay: Cytotoxicity against human NCI-H23 cells assessed as cell growth level at 10 uM after 48 hrs by sulforhodamine B assay
[34] = test system: U-251; assay: Cytotoxicity against human U251 cells assessed as cell growth level at 100 nM after 48 hrs by sulforhodamine B assay
[35] = test system: MOLT-4; assay: Cytotoxicity against human MOLT4 cells after 48 hrs by sulforhodamine B assay; conditions: MOLT-4, 48 h
[36] = test system: SK-MEL-5; assay: Cytotoxicity against human SK-MEL-5 cells assessed as cell growth level at 100 nM after 48 hrs by sulforhodamine B assay
[37] = test system: RPMI-8226; assay: Cytotoxicity against human RPMI8226 cells assessed as cell growth level at 1 uM after 48 hrs by sulforhodamine B assay
[38] = test system: SW-620; assay: Cytotoxicity against human SW620 cells assessed as cell growth level at 1 uM after 48 hrs by sulforhodamine B assay
[39] = test system: SF-539; assay: Cytotoxicity against human SF539 cells after 48 hrs by sulforhodamine B assay; conditions: SF-539, 48 h
[40] = test system: SNB-75; assay: Cytotoxicity against human SNB75 cells assessed as cell growth level at 100 uM after 48 hrs by sulforhodamine B assay
[41] = read-out: LC50 (the source's name)
[42] = read-out: pLC50 (the source's name) (converted)

Structure (SMILES): O=c1oc2ccccc2cc1-c1csc(N/N=C/c2c[nH]c3ccccc23)n1
- Activity [1]: 72%
- Activity [2]: 96%
- GI50 ([3]; read-out: GI50): 3.95 µM
- CC50 [3, 41]: > 100 µM
- TGI ([3]; read-out: TGI): > 100 µM
- GI50 ([3]; read-out: pGI50 (converted)): 3.98 µM
- CC50 [3, 42]: > 100 µM
- TGI ([3]; read-out: pTGI (converted)): 100 µM
- Activity [4]: 90%
- GI50 ([5]; read-out: GI50): 1.6 µM
- CC50 [5, 41]: 6.49 µM
- TGI ([5]; read-out: TGI): 3.22 µM
- GI50 ([5]; read-out: pGI50 (converted)): 1.58 µM
- CC50 [5, 42]: 6.46 µM
- TGI ([5]; read-out: pTGI (converted)): 3.24 µM
- Activity [6]: 79%
- Activity [7]: -80%
- Activity [8]: -37.04%
- Activity [9]: 100%
- Activity [10]: 58%
- Activity [11]: -36.09%
- Activity [12]: 92%
- Activity [13]: -89%
- Activity [14]: 94%
- Activity [15]: 62.24%
- Activity [16]: -0.54%
- Activity [17]: 84%
- Activity [18]: 87%
- Activity [19]: 64%
- Activity [20]: 103%
- Activity [21]: -71%
- Activity [22]: 107%
- Activity [23]: 54.83%
- Activity [24]: 73%
- Activity [25]: 104%
- Activity [26]: 11.3%
- Activity [27]: 94%
- Activity [28]: -90.51%
- Activity [29]: 95%
- GI50 ([30]; read-out: GI50): 0.828 µM
- CC50 [30, 41]: 7.63 µM
- TGI ([30]; read-out: TGI): 2.66 µM
- GI50 ([30]; read-out: pGI50 (converted)): 0.832 µM
- CC50 [30, 42]: 7.59 µM
- TGI ([30]; read-out: pTGI (converted)): 2.63 µM
- Activity [31]: -52%
- Activity [32]: 24.9%
- Activity [33]: 25.93%
- Activity [34]: 108%
- GI50 ([35]; read-out: GI50): 0.4 µM
- LC50 ([35]; read-out: LC50): > 100 µM
- TGI ([35]; read-out: TGI): 3.27 µM
- GI50 ([35]; read-out: pGI50 (converted)): 0.407 µM
- LC50 ([35]; read-out: pLC50 (converted)): > 100 µM
- TGI ([35]; read-out: pTGI (converted)): 3.24 µM
- Activity [36]: 88%
- Activity [37]: 48%
- Activity [38]: 72%
- GI50 ([39]; read-out: GI50): 1.58 µM
- CC50 [39, 41]: 7.25 µM
- TGI ([39]; read-out: TGI): 3.38 µM
- GI50 ([39]; read-out: pGI50 (converted)): 1.58 µM
- CC50 [39, 42]: 7.24 µM
- TGI ([39]; read-out: pTGI (converted)): 3.39 µM
- Activity [40]: -53%
